{
  "source": "patent US20130071521A1",
  "about": "“REBAUDIOSIDE D SWEETENERS AND FOOD PRODUCTS SWEETENED WITH REBAUDIOSIDE D” (PEPSICO, INC., priority 2007, published 2013)",
  "key": {"[1]": {"conditions": "cited from earlier work; for potency, times as sweet as sugar: commonly accepted potency figures"}, "[2]": {"system": "sensory panel of twelve testers", "assay": "Sensory panel evaluation in water, noncarbonated beverage base and carbonated beverage base (Example 2)", "format": "in vivo", "design": "Sweetness / Bitterness: scale not given here", "conditions": "for interaction between the sweetener and the three beverage bases (initial sweetness attribute plots): water, noncarbonated and carbonated beverage base", "description": "Potential beverage base effects on the initial sweetness perception of rebaudioside D were investigated by performing tests of three concentrations of rebaudioside D (Reb D) in water, in a noncarbonated beverage base, and in a carbonated beverage base, by a sensory panel of twelve testers. The numerical data generated by the sensory panel testers were then analyzed for their statistical significance.\nThe water employed for the tests of this Example comprised the characteristics as described in Example 1. The noncarbonated beverage base comprised purified water, and citric acid in an amount sufficient to decrease the pH of the noncarbonated beverage base to 3.1. The carbonated beverage base comprised purified water, carbon dioxide, and citric acid in an amount sufficient to decrease the pH of the noncarbonated beverage base to about 3.1. The initial sweetness characteristics of 606 parts per million (ppm) Reb D in water were compared to the initial sweetness characteristics of 606 ppm Reb D in noncarbonated beverage base and 606 ppm Reb D in carbonated beverage base.\nThe specific attributes tested by the sensory panel comprised sweetness, thickness, astringency, bitterness, numbing, cooling, licorice, burn/tingle and mouthcoat."}, "[3]": {"conditions": "Kinghorn (2002) page 138, cited from earlier work; for relative quality of taste, as compared to stevioside: stevioside is rated 0"}, "[4]": {"system": "sensory panel of twelve testers", "assay": "Sensory panel evaluation of initial sweetness characteristics of sweeteners in water (Example 1)", "format": "in vivo", "conditions": "for initial sweetness perception: FIG. 2/FIG. 4; for initial bitterness perception: FIG. 3/FIG. 5", "description": "Sensory evaluations of different sweeteners at various concentrations were performed to provide comparative analysis of organoleptic characteristics of aqueous solutions of rebaudioside D, versus other sweeteners. The rebaudioside D was a stevia extract having a purity of at least 93% by weight rebaudioside D (Reb D). Initial sweetness characteristics of three concentrations of such Reb D in water were determined by a sensory panel of twelve testers. Sensory panels are well known to those of skill in the art, and comprise testers trained to evaluate the organoleptic attributes of comestibles. Typically, sensory panelists have been screened for their taste acuity and extensively trained in the use of standardized vocabulary to describe the appearance, aroma, flavor, mouthfeel and aftertaste of a wide variety of products, as well as scaling techniques to quantify the attributes. The numerical data generated by the sensory panel testers were then analyzed for their statistical significance.\nThe water employed in the tests of Example 1 comprised purified water as described in detail above, and having a pH of 7.0. The initial sweetness characteristics of 1200 parts per million (ppm) Reb D in water were compared to the initial sweetness characteristics of aqueous solutions of each of 1200 ppm rebaudioside A (Reb A), sucrose, aspartame and sucralose. The rebaudioside A was a stevia extract comprising a purity of 95% by weight rebaudioside A (PureCircle USA Inc., Oak Brook, Ill.). The specific attributes tested by the sensory panel comprised sweetness, thickness, astringency, bitterness, numbing, cooling and licorice.\nThe initial sweetness characteristics of other concentrations of rebaudioside D in water were also tested and compared to the same concentrations of rebaudioside A in water. […] FIGS. 2 through 5 illustrate the differences in the characteristics of sweetness and bitterness attributes between Reb D and Reb A."}, "[5]": {"conditions": "360 ppm (sucrose 5.4 brix), FIGS. 16-18"}, "[6]": {"conditions": "606 ppm (sucrose 8.5 brix), FIGS. 13-15"}, "[7]": {"conditions": "CSD (carbonated beverage base), 360 ppm"}, "[8]": {"conditions": "CSD (carbonated beverage base), 606 ppm"}, "[9]": {"conditions": "High Level, 1200 ppm, averaged across all three beverage bases"}, "[10]": {"conditions": "Low-Medium Level, 360 ppm, averaged across all three beverage bases"}, "[11]": {"conditions": "Medium Level, 606 ppm, averaged across all three beverage bases"}, "[12]": {"conditions": "NCB (noncarbonated beverage base), 360 ppm"}, "[13]": {"conditions": "NCB (noncarbonated beverage base), 606 ppm"}},
  "note": "Where a SMILES comes first, the peptide text is derived from it.",
  "data": [
    {"compound": "CC1=CC(=O)NS(=O)(=O)O1", "note": "[Acesulfame-K]", "values": [
      {"measurement": "potency, times as sweet as sugar", "setting": "[1]", "value": 200, "unit": "times as sweet as sugar"}
    ]},
    {"compound": "OC[C@H]1O[C@@](CO)(O[C@H]2O[C@H](CO)[C@@H](O)[C@H](O)[C@H]2O)[C@@H](O)[C@@H]1O", "note": "[sucrose, reference compound]", "values": [
      {"measurement": "interaction between the sweetener and the three beverage bases (initial sweetness attribute plots)", "setting": "[2]; [5]", "value": "no significant interaction"},
      {"measurement": "interaction between the sweetener and the three beverage bases (initial sweetness attribute plots)", "setting": "[2]; [6]", "value": "no significant interaction"}
    ]},
    {"compound": "COC(=O)[C@H](Cc1ccccc1)NC(=O)[C@@H](N)CC(=O)O", "note": "[Aspertame] (HELM PEPTIDE1{D.F.[CO[*:1]]}$$$$V2.0)", "values": [
      {"measurement": "potency, times as sweet as sugar", "setting": "[1]", "value": 200, "unit": "times as sweet as sugar"}
    ]},
    {"compound": "COC(=O)[C@H](Cc1ccccc1)NC(=O)[C@H](CC(=O)O)NCCC(C)(C)C", "note": "[Neotame]", "values": [
      {"measurement": "potency, times as sweet as sugar", "setting": "[1]", "value": "8,000 times as sweet as sugar"}
    ]},
    {"compound": "C=C1C[C@@]23CC[C@H]4[C@@](C)(CCC[C@@]4(C)C(=O)O[C@@H]4O[C@H](CO)[C@@H](O)[C@H](O)[C@H]4O)[C@@H]2CC[C@]1(O[C@@H]1O[C@H](CO)[C@@H](O)[C@H](O)[C@H]1O[C@@H]1O[C@H](CO)[C@@H](O)[C@H](O)[C@H]1O)C3", "note": "[stevioside]", "values": [
      {"measurement": "potency, times as sweet as sugar", "setting": "[1]", "value": "100-250 times as sweet as sugar"},
      {"measurement": "relative quality of taste, as compared to stevioside", "setting": "[3]", "value": 0}
    ]},
    {"compound": "C[C@H](CC[C@@H](O[C@@H]1O[C@H](CO[C@@H]2O[C@H](CO)[C@@H](O)[C@H](O)[C@H]2O)[C@@H](O)[C@H](O)[C@H]1O[C@@H]1O[C@H](CO)[C@@H](O)[C@H](O)[C@H]1O)C(C)(C)O)[C@H]1CC[C@@]2(C)[C@@H]3CC=C4[C@@H](CC[C@H](O[C@@H]5O[C@H](CO[C@@H]6O[C@H](CO)[C@@H](O)[C@H](O)[C@H]6O)[C@@H](O)[C@H](O)[C@H]5O)C4(C)C)[C@]3(C)[C@H](O)C[C@]12C", "note": "[Mogroside V]", "values": [
      {"measurement": "potency, times as sweet as sugar", "setting": "[1]", "value": "100-300 times as sweet as sugar"}
    ]},
    {"compound": "C=C1C[C@@]23CC[C@H]4[C@@](C)(CCC[C@@]4(C)C(=O)O[C@@H]4O[C@H](CO)[C@@H](O)[C@H](O)[C@H]4O)[C@@H]2CC[C@]1(O[C@@H]1O[C@H](CO)[C@@H](O)[C@H](O[C@@H]2O[C@H](CO)[C@@H](O)[C@H](O)[C@H]2O)[C@H]1O[C@@H]1O[C@H](CO)[C@@H](O)[C@H](O)[C@H]1O)C3", "note": "[Reb A, rebaudioside A, reference compound]", "values": [
      {"measurement": "initial sweetness perception", "setting": "[4]; 360 ppm in water", "value": "about 60"},
      {"measurement": "initial bitterness perception", "setting": "[4]; 360 ppm in water", "value": "about 38"},
      {"measurement": "initial sweetness perception", "setting": "[4]; 1200 ppm in water", "value": "about 68"},
      {"measurement": "initial bitterness perception", "setting": "[4]; 1200 ppm in water", "value": "about 85"},
      {"measurement": "interaction between the sweetener and the three beverage bases (initial sweetness attribute plots)", "setting": "[2]; [5]", "value": "no significant interaction"},
      {"measurement": "interaction between the sweetener and the three beverage bases (initial sweetness attribute plots)", "setting": "[2]; [6]", "value": "no significant interaction"},
      {"measurement": "Bitterness", "setting": "[2]; [7]", "value": 20.5},
      {"measurement": "Sweetness", "setting": "[2]; [7]", "value": 50.7},
      {"measurement": "Bitterness", "setting": "[2]; [8]", "value": 28.2},
      {"measurement": "Sweetness", "setting": "[2]; [8]", "value": 66.0},
      {"measurement": "Bitterness", "setting": "[2]; [9]", "value": 45.1},
      {"measurement": "Sweetness", "setting": "[2]; [9]", "value": 70.6},
      {"measurement": "Bitterness", "setting": "[2]; [10]", "value": 21.0},
      {"measurement": "Sweetness", "setting": "[2]; [10]", "value": 52.6},
      {"measurement": "Bitterness", "setting": "[2]; [11]", "value": 33.4},
      {"measurement": "Sweetness", "setting": "[2]; [11]", "value": 63.5},
      {"measurement": "Bitterness", "setting": "[2]; [12]", "value": 24.4},
      {"measurement": "Sweetness", "setting": "[2]; [12]", "value": 52.3},
      {"measurement": "Bitterness", "setting": "[2]; [13]", "value": 29.8},
      {"measurement": "Sweetness", "setting": "[2]; [13]", "value": 68.5},
      {"measurement": "Bitterness", "setting": "[2]; Water, 360 ppm", "value": 21.0},
      {"measurement": "Sweetness", "setting": "[2]; Water, 360 ppm", "value": 52.6},
      {"measurement": "Bitterness", "setting": "[2]; Water, 606 ppm", "value": 33.4},
      {"measurement": "Sweetness", "setting": "[2]; Water, 606 ppm", "value": 63.5},
      {"measurement": "sweetness relative to sucrose", "setting": "[1]; background statement", "value": "approximately 200 times sweeter than sucrose"},
      {"measurement": "potency, times as sweet as sugar", "setting": "[1]", "value": "150-200 times as sweet as sugar"},
      {"measurement": "sweetness (value reported by Kinghorn)", "setting": "[3]", "value": 242},
      {"measurement": "relative quality of taste, as compared to stevioside", "setting": "[3]", "value": "+2"}
    ]},
    {"compound": "COc1ccc(CCC(=O)c2c(O)cc(O[C@@H]3O[C@H](CO)[C@@H](O)[C@H](O)[C@H]3O[C@@H]3O[C@@H](C)[C@H](O)[C@@H](O)[C@H]3O)cc2O)cc1O", "note": "[Neohesperidin dihydrochalcone]", "values": [
      {"measurement": "potency, times as sweet as sugar", "setting": "[1]", "value": 300, "unit": "times as sweet as sugar"}
    ]},
    {"compound": "O=C1NS(=O)(=O)c2ccccc21", "note": "[Saccharin]", "values": [
      {"measurement": "potency, times as sweet as sugar", "setting": "[1]", "value": 300, "unit": "times as sweet as sugar"}
    ]},
    {"compound": "OC[C@H]1O[C@H](O[C@]2(CCl)O[C@H](CCl)[C@@H](O)[C@@H]2O)[C@H](O)[C@@H](O)[C@H]1Cl", "note": "[Sucralose]", "values": [
      {"measurement": "potency, times as sweet as sugar", "setting": "[1]", "value": 600, "unit": "times as sweet as sugar"}
    ]}
  ]
}
